Measurements taken from patent publication US20250161408A1, “PEPTIDIC INHIBITORS OF AMYLOID SELF- AND CROSS-ASSEMBLY” (TECHNISCHE UNIVERSITÄT MÜNCHEN, priority 2022, published 2025).
Entries after “also recorded” stand apart in the source; their conditions may differ. Non-standard residues stand in square brackets, D forms with d. Residues, ends and D or L forms follow the SMILES beside them. NMeF = CN[C@@H](Cc1ccccc1)C(=O)O; NMeV = CN[C@H](C(=O)O)C(C)C; Nle = CCCC[C@H](N)C(=O)O

Columns and labels:
[1] = test system: proteinase K; assay: Proteinase K (PK) fibril digestion assay with dot blot; details: IAPP-related fibrils; 37° C.; dot blot with anti-fIAPP and anti-Aβ antibodies
Experimental: Solutions made as above but w/o PK were used as controls for 100% undigested fibrils. Solutions were incubated at 37° C. and at indicated time points aliquots were dotted onto nitrocellulose membranes and spots were quickly dried by air. Membranes were washed (TBS-T) and blocked (5% milk in TBS-T, overnight (10° C.)). […] Primary antibodies were combined with goat anti-mouse-POD (1:1000) or donkey anti-rabbit-POD (1:5000); detection was as under “Cross-linking, NuPAGE and WB”.

[2] = target: T1, IAPP (Homo sapiens, UniProt P10997); assay: MTT reduction assay of IAPP-mediated cell damage in RIN5fm cells; assay type: cell-based
T1 construct: made in house; host or cells: chemical synthesis (Fmoc-SPPS), air-oxidised, RP-HPLC purified
T1 sequence (P10997 34-70 limits assumed): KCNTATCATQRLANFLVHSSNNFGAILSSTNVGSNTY
Experimental: Briefly, cells were cultivated and platted in 96-well plates. Aliquots of solutions used for the ThT binding assays (see “ThT binding assays”) were diluted with cell medium at the indicated incubation time points (24 h or 7 days) and added to the cells at the indicated final concentrations. Following incubation with the cells for ˜20 h (37° C., humidified atmosphere, 5% CO2) cell damage was assessed by measuring cellular MTI reduction. IC50 values were determined.

[3] = target: T2, Aβ42 (Homo sapiens, UniProt P05067); assay: ThT binding assay of Aβ42 fibrillogenesis (self-assembly, seeding, cross-seeding); assay type: biochemical
T2 construct: the 40(42)-residue peptide Aβ40(42); made in house; host or cells: chemical synthesis (Fmoc-SPPS), monomer isolated by SEC
T2 sequence (P05067 672-713): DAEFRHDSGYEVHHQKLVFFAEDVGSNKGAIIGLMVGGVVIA
Experimental: Aβ42 fibrillogenesis-related studies. […] Peptide incubations were performed in the presence of ThT in 96-well black MTPs (FluoroNunc, Thermo Fisher Scientific). […] Values of seeds or buffer alone were subtracted from the data in self-/cross-seeding assays; all other data shown are raw data except for data in FIG. 27b which were normalized).
Incubations (37° C.) and determination of ThT fluorescence were performed as for all other Aβ42-related studies.

[4] = target: T2, Aβ42; assay: Fluorescence spectroscopic titration of FITC-Aβ42 with ACMs; details: read-out: app. KD (±SD) of ACM/Aβ42 interactions; N-terminal FITC-labelled Aβ42 5 nM, pH 7.4; means from three binding curves
Experimental: Fluorescence spectroscopic studies were performed with a Jasco FP-6500 fluorescence spectrophotometer. Briefly, excitation was at 492 nm and spectra were measured between 500 and 600 nm. All titrations were performed in freshly made solutions of synthetic N-terminal fluorescently labeled peptide (5 nM) and various amounts of unlabeled peptide in 10 mM sodium phosphate buffer, pH 7.4 (1% HFIP) within 2-5 min following solution preparation. Under these experimental conditions, freshly made solutions of Fluos-IAPP and FITC-Aβ42 (5 nM) consist mostly of monomers and the same was found for Fluos-ACMs (5 nM) (FIG. 13e and data not shown). Apparent binding affinities (app. KDs) were estimated by using 1/1 binding models. However, due to the high self-assembly propensities of involved peptides more complex models might also apply. Determined app. KDs are means (±SD) from three binding curves derived from three independent titration assays.

[5] = target: T2, Aβ42; assay: cell-based; details: read-out: IC50 (±SD) of inhibitory effects of ACMs on Aβ42-mediated cell damage
Experimental: Following incubation with the cells for ˜20 h (37° C., humidified atmosphere, 5% CO2), cell damage was assessed by measuring cellular MTT reduction.
Solutions were aged for 1.5 h (37° C., shaking 500 rpm). Aliquots were diluted with cell medium, incubated with PC12 cells at the indicated final concentrations for ˜20 h and cellular MTT reduction was measured as above.

[6] = test system: cultured murine BV2 microglia; assay: Phagocytosis of Aβ42 species with or without ACM; assay type: cell-based, mouse; details: 1/1, co-incubation 2 h
Experimental: Briefly, BV2 cells were maintained in GlutaMAX-supplemented RPMI1640 medium containing 10% FBS and 1% penicillin/streptomycin on poly-L-ornithine-coated flasks. For the phagocytosis assay, BV2 cells were seeded into 24-well plates containing coverslips in serum-free RPMI1640-GlutaMAX and further incubated for 24 h (5% CO2, 37° C.) to reach 10000 cells/well. Primary BMDMs were obtained from bone-marrow monocytes isolated from wildtype C57BL/6 mice, plated in 24-well plates at a density of 10000cells/well, and differentiated with L929 cell-conditioned medium (RPMI1640, 10% FBS, 1% penicillin/streptomycin) for 7 days. Thereafter, cells were incubated with aged peptide solutions at 37° C. for 6 h. […]
Following incubation of the cells with the peptides, supernatants were removed and cells on the coverslips were washed 5 times with ice-cold 1×PBS, fixed with 4% paraformaldehyde, washed with 1×PBS, permeabilized with 0.2% Triton-X 100, and rinsed three times with cold 1×PBS. […] Images were acquired using a Leica DMi8 fluorescence microscope. The percentage of cells that had taken up peptides was calculated by dividing the number of BV2 cells or BMDMs that phagocytosed TAMRA-labeled peptide by the total cell count, multiplied by 100. Significance was analyzed by unpaired student's t-test.

[7] = target: T3, fIAPP (Homo sapiens, UniProt P10997); assay: Dot blot binding of Fluos-peptides to fIAPP; details: Fluos-peptides 0.2 μM
T3 construct: made in house; host or cells: chemical synthesis (Fmoc-SPPS), air-oxidised, RP-HPLC purified
T3 sequence (P10997 34-70 limits assumed): T1 sequence (P10997 34-70 limits assumed)
Experimental: After blocking (5% milk in TBS-T, 2 h, RT) and several washing steps (with TBS-T and ThT buffer), membranes were incubated with N-terminal fluorescein-labeled ACMs (Fluos-ACMs) at 0.2 μM for IAPP-related membranes or 2 μM for Aβ42-related membranes; incubation was overnight (10° C.) in ThT buffer (containing 1% HFIP). To control for fibril autofluorescence, similar membranes were incubated in parallel with buffer only. Bound peptides were visualized using a LAS-400 mini instrument (Fujifilm) equipped with a suitable fluorescence filter.

CC[C@H](C)[C@H](NC(=O)[C@H](C)NC(=O)CNC(=O)[C@H](Cc1ccccc1)NC(=O)[C@H](CC(N)=O)NC(=O)[C@H](CC(N)=O)NC(=O)[C@H](CO)NC(=O)[C@H](CO)NC(=O)[C@H](Cc1c[nH]cn1)NC(=O)[C@@H](NC(=O)[C@H](CC(C)C)NC(=O)[C@H](Cc1ccccc1)NC(=O)[C@H](CC(N)=O)NC(=O)[C@H](C)NC(=O)[C@H](CC(C)C)NC(=O)[C@H](CCCNC(=N)N)NC(=O)[C@H](CCC(N)=O)NC(=O)[C@@H](NC(=O)[C@H](C)NC(=O)[C@@H]1CSSC[C@H](NC(=O)[C@@H](N)CCCCN)C(=O)N[C@@H](CC(N)=O)C(=O)N[C@@H]([C@@H](C)O)C(=O)N[C@@H](C)C(=O)N[C@@H]([C@@H](C)O)C(=O)N1)[C@@H](C)O)C(C)C)C(=O)N[C@@H](CC(C)C)C(=O)N[C@@H](CO)C(=O)N[C@@H](CO)C(=O)N[C@H](C(=O)N[C@@H](CC(N)=O)C(=O)N[C@H](C(=O)NCC(=O)N[C@@H](CO)C(=O)N[C@@H](CC(N)=O)C(=O)N[C@H](C(=O)N[C@@H](Cc1ccc(O)cc1)C(N)=O)[C@@H](C)O)C(C)C)[C@@H](C)O [IAPP]
Time to degradation by proteinase K [1]: at least 30 h

CCCC[C@H](NC(=O)[C@H](CC(=O)O)NC(=O)[C@H](CCC(=O)O)NC(=O)[C@H](C)NC(=O)[C@H](Cc1ccccc1)N(C)C(=O)[C@H](Cc1ccccc1)NC(=O)[C@H](C(C)C)N(C)C(=O)[C@H](CC(C)C)NC(=O)[C@H](CCCCN)NC(=O)[C@@H](N)CCC(N)=O)C(=O)N[C@@H](CCCC)C(=O)N[C@@H](CCCC)C(=O)N[C@@H](CC(N)=O)C(=O)N[C@@H](CCCCN)C(=O)NCC(=O)N[C@@H](C)C(=O)N[C@H](C(=O)N[C@H](C(=O)NCC(=O)N[C@@H](CC(C)C)C(=O)N[C@@H](CCCC)C(=O)N[C@H](C(=O)NCC(=O)NCC(=O)N[C@H](C(=O)N[C@H](C(=O)O)C(C)C)C(C)C)C(C)C)[C@@H](C)CC)[C@@H](C)CC [Nle3-VF] (H-QKL[NMeV]F[NMeF]AED[Nle][Nle][Nle]NKGAIIGL[Nle]VGGVV-OH)
Effect of addition to preformed fIAPP on fIAPP cytotoxicity (MTT reduction) ([2]; RIN5fm cells, ACM 33 μM added to fIAPP […], 1 day, fIAPP 500 nM): does not affect fIAPP cytotoxicity | Effect on formation of cytotoxic IAPP assemblies (MTT reduction) ([2]; RIN5fm cells, aged (24 h or 7 days) IAPP/peptide 1/2 solutions): fully suppressed; also recorded: suppress formation of toxic IAPP assemblies | IC50 ([2]; read-out: IC50 (±SD) of inhibitory effects of ACMs on IAPP-mediated cell damage): 65 nM | Effect of addition to preformed toxic Aβ42 oligomers on fibrillogenesis (ThT binding) ([3]; 2 h-aged Aβ42, 1/1): delay of fibrillogenesis | Effect of addition to already nucleated Aβ42 fibrillogenesis (ThT binding) ([3]; Aβ42 5 μM, post-nucleation addition): does not affect amounts of already formed ThT-positive fibrils | Kd [4]: 14.5 ± 8 nM | IC50 [5]: 367 nM | Effect of addition to TAMRA-oAβ42 on Aβ42 phagocytosis [6]: increased Aβ42 phagocytosis

QKL(N-Me)VF(N-Me)FAED - Val-Gly-Ser - NKGAIIGLNleVGGVV (H-QKL[NMeV]F[NMeF]AEDVGSNKGAIIGL[Nle]VGGVV-OH; SMILES CCCC[C@H](NC(=O)[C@H](CC(C)C)NC(=O)CNC(=O)[C@@H](NC(=O)[C@@H](NC(=O)[C@H](C)NC(=O)CNC(=O)[C@H](CCCCN)NC(=O)[C@H](CC(N)=O)NC(=O)[C@H](CO)NC(=O)CNC(=O)[C@@H](NC(=O)[C@H](CC(=O)O)NC(=O)[C@H](CCC(=O)O)NC(=O)[C@H](C)NC(=O)[C@H](Cc1ccccc1)N(C)C(=O)[C@H](Cc1ccccc1)NC(=O)[C@H](C(C)C)N(C)C(=O)[C@H](CC(C)C)NC(=O)[C@H](CCCCN)NC(=O)[C@@H](N)CCC(N)=O)C(C)C)[C@@H](C)CC)[C@@H](C)CC)C(=O)N[C@H](C(=O)NCC(=O)NCC(=O)N[C@H](C(=O)N[C@H](C(=O)O)C(C)C)C(C)C)C(C)C) [VGS-VF]
Binding to fIAPP (dot blot) [7]: bind fIAPP
